Patent US20230159489A1, “PHD INHIBITOR COMPOUNDS, COMPOSITIONS, AND USE” (Akebia Therapeutics, Inc., priority 2020, published 2023)

Key:
[1] = target: T1, full-length human PHD1 (Homo sapiens, UniProt Q96KS0); test: TR-FRET assay, enzymatic IC50 against PHD1; assay type: biochemical; further: 15 nM PHD1
T1 construct: FLAG (N); purchased Active Motif 81064; host or cells: baculovirus expression system
Description: PHD1 was expressed in a baculovirus expression system as the full-length protein (NCBI accession number NP_542770.2) with an N-terminal FLAG tag (molecular weight 44.9 kDa).

[2] = target: T2, full-length human PHD3 (Homo sapiens, UniProt Q9H6Z9); test: TR-FRET assay, enzymatic IC50 against PHD3; assay type: biochemical; further: 35 nM PHD3
T2 construct: 6-His (N); purchased Active Motif 81033; host or cells: E. coli
Description: Recombinant human PHD3 protein (molecular weight 31.1 kDa) was purchased from Active Motif (Carlsbad, Calif., USA). It was expressed in E. coli as the full-length protein (NCBI accession number NP_071356.1) with an N-terminal 6-His tag (catalog #81033, Lot #24417001).

[3] = target: full-length human PHD2 (Homo sapiens, UniProt Q9GZT9); test: TR-FRET assay, enzymatic IC50 against PHD2
Chain of full-length human PHD2 (Q9GZT9 whole entry): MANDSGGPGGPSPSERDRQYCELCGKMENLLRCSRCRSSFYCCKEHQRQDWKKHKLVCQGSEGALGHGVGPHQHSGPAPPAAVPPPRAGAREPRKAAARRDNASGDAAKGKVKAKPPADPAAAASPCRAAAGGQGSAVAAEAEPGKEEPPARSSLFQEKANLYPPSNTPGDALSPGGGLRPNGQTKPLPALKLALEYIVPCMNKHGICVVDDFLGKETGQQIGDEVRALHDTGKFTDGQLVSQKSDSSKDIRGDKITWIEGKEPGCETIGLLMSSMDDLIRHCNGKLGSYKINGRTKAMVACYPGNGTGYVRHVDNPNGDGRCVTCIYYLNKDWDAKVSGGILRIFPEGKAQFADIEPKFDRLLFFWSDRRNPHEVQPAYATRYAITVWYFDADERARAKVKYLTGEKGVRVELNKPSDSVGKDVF
Description: Time-resolved fluorescence resonance energy transfer (TR-FRET) assay was utilized to determine the enzymatic half maximal inhibitory concentration (IC50) value of PHD inhibitors against the full-length human prolyl-4-hydroxylase domain (PHD) enzymes, PHD1, PHD2, and PHD3. The TR-FRET assay was developed based on the specific binding of hydroxylated HIF-1α peptide with the complex formed by VHL, EloB and EloC (VBC), to generate a fluorescent signal. Terbium (Tb)-Donor (monoclonal antibody anti-6His-Tb-cryptate Gold) and D2-acceptor (streptavidin [SA]-D2) of TR-FRET are linked to the VBC complex and to HIF-1α peptide, respectively. The VBC complex binds specifically to the HIF-1α peptide when it is hydroxylated, allowing energy transfer from TR-FRET donor to acceptor (FIG. 1). […] The plates were incubated for 30 minutes at room temperature without rotation. […] TR-FRET assays were performed in triplicate at each concentration of compound and the assays were repeated independently three times.

T1 sequence (Q96KS0 whole entry): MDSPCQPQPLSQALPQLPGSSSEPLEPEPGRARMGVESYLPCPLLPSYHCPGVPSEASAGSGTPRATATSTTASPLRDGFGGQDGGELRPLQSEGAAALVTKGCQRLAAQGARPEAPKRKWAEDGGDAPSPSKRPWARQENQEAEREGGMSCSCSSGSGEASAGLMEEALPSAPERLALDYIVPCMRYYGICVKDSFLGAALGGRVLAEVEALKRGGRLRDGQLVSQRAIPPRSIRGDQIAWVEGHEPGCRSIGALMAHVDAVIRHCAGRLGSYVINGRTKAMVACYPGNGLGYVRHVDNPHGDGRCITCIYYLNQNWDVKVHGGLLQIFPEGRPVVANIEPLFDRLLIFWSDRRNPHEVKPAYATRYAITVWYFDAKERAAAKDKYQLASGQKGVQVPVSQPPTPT
T2 sequence (Q9H6Z9 whole entry): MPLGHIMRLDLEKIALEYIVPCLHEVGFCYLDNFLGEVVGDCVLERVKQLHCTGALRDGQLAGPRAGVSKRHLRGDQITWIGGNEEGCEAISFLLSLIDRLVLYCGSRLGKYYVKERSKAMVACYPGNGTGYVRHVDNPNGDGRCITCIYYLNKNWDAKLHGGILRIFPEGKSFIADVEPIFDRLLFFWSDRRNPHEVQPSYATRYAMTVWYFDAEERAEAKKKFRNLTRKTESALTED

Structure (SMILES) | IC50 [1] [nM] | IC50 [2] [nM] | IC50 [3] [nM]
Cc1nn(-c2ccc(S(C)(=O)=O)cn2)c(O)c1-c1ccc(Cl)cc1 [Compound 1, 4-(4-chlorophenyl)-3-methyl-1-(5-(methylsulfonyl)pyridin-2-yl)-1H-pyrazol-5-ol] | < 100 | 100 to 1000 | < 100
Cc1cc(C#N)ccc1-c1c(C)nn(-c2ccc(S(C)(=O)=O)cn2)c1O [Compound 2, 4-(5-hydroxy-3-methyl-1-(5-(methylsulfonyl)pyridin-2-yl)-1H-pyrazol-4-yl)-3-methylbenzonitrile] | < 100 | < 100 | < 100
Cc1nn(-c2ccc(S(C)(=O)=O)cn2)c(O)c1-c1ccc(C#N)cc1 [Compound 3, 4-(5-hydroxy-3-methyl-1-(5-(methylsulfonyl)pyridin-2-yl)-1H-pyrazol-4-yl)benzonitrile] | < 100 | < 100 | < 100
CCc1nn(-c2ccc(S(C)(=O)=O)cn2)c(O)c1-c1ccc(C#N)cc1 [Compound 4, 4-(3-ethyl-5-hydroxy-1-(5-(methylsulfonyl)pyridin-2-yl)-1H-pyrazol-4-yl)benzonitrile] | < 100 | 1000 to 10000 | < 100
CS(=O)(=O)c1ccc(-n2nc(C3CC3)c(-c3ccc(C#N)cc3)c2O)nc1 [Compound 5, 4-(3-cyclopropyl-5-hydroxy-1-(5-(methylsulfonyl)pyridin-2-yl)-1H-pyrazol-4-yl) benzonitrile] | 100 to 1000 | > 10000 | 1000 to 10000
Cc1nn(-c2ccc(NS(C)(=O)=O)cn2)c(O)c1-c1ccc(C#N)cc1 [Compound 6, N-(6-(4-(4-cyanophenyl)-5-hydroxy-3-methyl-1H-pyrazol-1-yl)pyridin-3-yl) methanesulfonamide] | < 100 | < 100 | < 100
Cc1nn(-c2ccc(N3CCCC3=O)cn2)c(O)c1-c1ccc(C#N)cc1 [Compound 7, 4-(5-hydroxy-3-methyl-1-(5-(2-oxopyrrolidin-1-yl)pyridin-2-yl)-1H-pyrazol-4-yl)benzonitrile] | < 100 | 100 to 1000 | < 100
Cc1nn(-c2ccc(S(=O)(=O)c3ccccc3)cn2)c(O)c1-c1ccc(C#N)cc1 [Compound 8, 4-(5-hydroxy-3-methyl-1-(5-(phenylsulfonyl)pyridin-2-yl)-1H-pyrazol-4-yl)benzonitrile] | < 100 | 100 to 1000 | < 100
CNS(=O)(=O)Nc1ccc(-n2nc(C)c(-c3ccc(C#N)cc3)c2O)nc1 [Compound 51, N-(6-(4-(4-cyanophenyl)-5-hydroxy-3-methyl-1H-pyrazol-1-yl)pyridin-3-yl)-N′-methylsulfamide] | < 100 | – | < 100
Cc1nn(-c2ccc(NS(=O)(=O)N(C)C)cn2)c(O)c1-c1ccc(C#N)cc1 [Compound 52, N-(6-(4-(4-cyanophenyl)-5-hydroxy-3-methyl-1H-pyrazol-1-yl)pyridin-3-yl)-N′-dimethylsulfamide] | < 100 | – | < 100
Cc1nn(-c2cc(C3CC3)c(S(C)(=O)=O)cn2)c(O)c1-c1ccc(C#N)cc1 [Compound 53, 4-(1-(4-cyclopropyl-5-(methylsulfonyl)pyridin-2-yl)-5-hydroxy-3-methyl-1H-pyrazol-4-yl)benzonitrile] | < 100 | – | < 100
Cc1nn(-c2ccc(-c3ncco3)cn2)c(O)c1-c1ccc(C#N)cc1 [Compound 59, 4-(5-Hydroxy-3-methyl-1-(5-(oxazol-2-yl)pyridin-2-yl)-1H-pyrazol-4-yl)benzonitrile] | < 100 | – | < 100
Cc1nn(-c2ccc(-c3nccs3)cn2)c(O)c1-c1ccc(C#N)cc1 [Compound 60, 4-(5-Hydroxy-3-methyl-1-(5-(thiazol-2-yl)pyridin-2-yl)-1H-pyrazol-4-yl)benzonitrile] | < 100 | – | 100 to 1000
Cc1nn(-c2ccc(-c3ncc(-c4ccccc4)s3)cn2)c(O)c1-c1ccc(C#N)cc1 [Compound 61, 4-(5-Hydroxy-3-methyl-1-(5-(5-phenylthiazol-2-yl)pyridin-2-yl)-1H-pyrazol-4-yl)benzonitrile] | < 100 | – | > 10000
Cc1nn(-c2ccc(-c3nc(-c4ccccc4)cs3)cn2)c(O)c1-c1ccc(C#N)cc1 [Compound 62, 4-(5-Hydroxy-3-methyl-1-(5-(4-phenylthiazol-2-yl)pyridin-2-yl)-1H-pyrazol-4-yl)benzonitrile] | 100 to 1000 | – | > 10000
Cc1nn(-c2ccc(-n3cccn3)cn2)c(O)c1-c1ccc(C#N)cc1 [Compound 63, 4-(1-(5-(1H-pyrazol-1-yl)pyridin-2-yl)-5-hydroxy-3-methyl-1H-pyrazol-4-yl)benzonitrile] | < 100 | – | 100 to 1000
Cc1nn(-c2ccc(-n3cc(-c4ccccc4)cn3)cn2)c(O)c1-c1ccc(C#N)cc1 [Compound 64, 4-(5-Hydroxy-3-methyl-1-(5-(4-phenyl-1H-pyrazol-1-yl)pyridin-2-yl)-1H-pyrazol-4-yl)benzonitrile] | < 100 | – | 100 to 1000
Cc1nn(-c2ccc([S@@](=N)(=O)C3CC3)cn2)c(O)c1-c1ccc(Cl)cc1 [Compound 65, (S)-(6-(4-(4-chlorophenyl)-5-hydroxy-3-methyl-1H-pyrazol-1-yl)pyridin-3-yl)(cyclopropyl)(imino)-λ^6-sulfanone] | < 100 | – | < 100
Cc1nn(-c2ccc([S@](=N)(=O)C3CC3)cn2)c(O)c1-c1ccc(Cl)cc1 [Compound 66, (R)-(6-(4-(4-chlorophenyl)-5-hydroxy-3-methyl-1H-pyrazol-1-yl)pyridin-3-yl)(cyclopropyl)(imino)-λ^6-sulfanone] | < 100 | – | < 100
Cc1nn(-c2ccc(NS(C)(=O)=O)cn2)c(O)c1-c1ccc(Cl)cc1 [Compound 67, N-(6-(4-(4-chlorophenyl)-5-hydroxy-3-methyl-1H-pyrazol-1-yl)pyridin-3-yl)methanesulfonamide] | < 100 | – | < 100
Cc1cc(-n2nc(C)c(-c3ccc(C#N)cc3)c2O)ncc1[S@@](=N)(=O)C1CC1 [Compound 68, (S)-4-(1-(5-(cyclopropanesulfonimidoyl)-4-methylpyridin-2-yl)-5-hydroxy-3-methyl-1H-pyrazol-4-yl)benzonitrile] | < 100 | – | < 100
Cc1cc(-n2nc(C)c(-c3ccc(C#N)cc3)c2O)ncc1[S@](=N)(=O)C1CC1 [Compound 69, (R)-4-(1-(5-(cyclopropanesulfonimidoyl)-4-methylpyridin-2-yl)-5-hydroxy-3-methyl-1H-pyrazol-4-yl)benzonitrile] | < 100 | – | < 100
Cc1cc(-n2nc(C)c(-c3ccc(C#N)cc3)c2O)ncc1S(=O)(=O)Nc1ccccc1 [Compound 70, 6-(4-(4-cyanophenyl)-5-hydroxy-3-methyl-1H-pyrazol-1-yl)-4-methyl-N-phenylpyridine-3-sulfonamide] | < 100 | – | 100 to 1000
Cc1cc(-n2nc(C)c(-c3ccc(C#N)cc3)c2O)ncc1S(=O)(=O)NC1CC1 [Compound 71, 6-(4-(4-cyanophenyl)-5-hydroxy-3-methyl-1H-pyrazol-1-yl)-N-cyclopropyl-4-methylpyridine-3-sulfonamide] | < 100 | – | < 100
